pKi: −log10 of the molar value.
Target: T1, Prostaglandin D2 receptor 2 (Homo sapiens, UniProt Q9Y5Y4)
T1 sequence (Q9Y5Y4 whole entry): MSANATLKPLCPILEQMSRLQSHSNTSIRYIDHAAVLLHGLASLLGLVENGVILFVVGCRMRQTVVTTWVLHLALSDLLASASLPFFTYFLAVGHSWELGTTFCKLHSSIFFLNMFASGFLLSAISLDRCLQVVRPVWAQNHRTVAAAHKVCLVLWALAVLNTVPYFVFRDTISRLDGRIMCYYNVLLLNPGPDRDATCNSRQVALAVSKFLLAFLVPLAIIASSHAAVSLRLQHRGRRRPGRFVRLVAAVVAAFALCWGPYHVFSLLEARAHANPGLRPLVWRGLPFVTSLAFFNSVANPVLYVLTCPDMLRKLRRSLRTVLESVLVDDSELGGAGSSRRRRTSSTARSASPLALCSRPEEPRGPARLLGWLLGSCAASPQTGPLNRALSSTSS
Experiment: Displacement of [3H]PGD2 from human CRTH2 receptor expressed in CHO cells after 90 mins by scintillation proximity assay
Type: cell-based

SMILES	pKi
O=C(O)CN1C(=O)C2(NC(=O)N(Cc3cc(Cl)ccc3F)C2=O)c2cc(Cl)ccc21 (centres undefined)	7.55
CCN1C(=O)N(Cc2cc(Cl)ccc2F)C(=O)[C@]12C(=O)N(CC(=O)O)c1ccc(Cl)cc12	6.59
CCCN1C(=O)N(Cc2cc(Cl)ccc2F)C(=O)[C@]12C(=O)N(CC(=O)O)c1ccc(Cl)cc12	6.96
CN1C(=O)N(Cc2cc(F)ccc2F)C(=O)C12C(=O)N(CC(=O)O)c1ccc(Cl)cc12 (centres undefined)	6.41
CN1C(=O)N(Cc2cn(-c3ccccc3)nc2-c2ccccc2)C(=O)C12C(=O)N(CC(=O)O)c1ccc(Cl)cc12 (centres undefined)	7.02
CN1C(=O)N(Cc2nc3ccccc3s2)C(=O)C12C(=O)N(CC(=O)O)c1ccc(Cl)cc12 (centres undefined)	6.12
COc1c(C)cnc(CN2C(=O)N(C)C3(C2=O)C(=O)N(CC(=O)O)c2ccc(Cl)cc23)c1C (centres undefined)	6.55
CC(C)c1nc(CN2C(=O)N(C)C3(C2=O)C(=O)N(CC(=O)O)c2ccc(Cl)cc23)cs1 (centres undefined)	6.31
O=C(O)CN1C(=O)C2(NC(=O)N(Cc3ccccc3F)C2=O)c2cc(Cl)ccc21 (centres undefined)	6.41

— ChEMBL document CHEMBL2040789, “Optimization of the Central Core of Indolinone-Acetic Acid-Based CRTH2 (DP2) Receptor Antagonists” (ACS Med Chem Lett, 2011)
